Assay results taken from ChEMBL document CHEMBL6114959, “Modeling, synthesis and cell-based evaluation of pyridine-substituted analogs of CD3254 and fluorinated analogs of CBt-PMN as novel therapeutics” (Bioorg Med Chem, 2025).

Assays:
[1] = (§1) Cytotoxicity in Saccharomyces cerevisiae D7 incubated for 3 hrs; type: toxicity, organism-based; conditions: Saccharomyces cerevisiae D7 cells
[2] = Mutagenicity in Saccharomyces cerevisiae D7 incubated for 3 hrs; type: toxicity
Saccharomyces cerevisiae = assay: as §1; type: toxicity, organism-based; conditions: in vivo, 3 h

Structure (SMILES) | CC50 at 3 h [1] [µM] | Activity [2] | Activity (Saccharomyces cerevisiae)
Cc1cc2c(cc1-n1c(C(F)(F)F)nc3cc(C(=O)O)ccc31)C(C)(C)CCC2(C)C | 193 | Non-toxic | –
Cc1cnc(/C=C/C(=O)O)cc1-c1cc2c(cc1C)C(C)(C)CCC2(C)C | 228 | Non-toxic | –
Cc1cc2c(cc1-c1nc(/C=C/C(=O)O)ccc1C)C(C)(C)CCC2(C)C | 228 | Non-toxic | –
Cc1cc2c(cc1-c1cncc(/C=C/C(=O)O)c1)C(C)(C)CCC2(C)C | 440 | Non-toxic | –
Cc1cc2c(cc1-c1cc(/C=C/C(=O)O)cnc1C)C(C)(C)CCC2(C)C | 825 | Non-toxic | –
C=C(c1ccc(C(=O)O)cc1)c1cc2c(cc1C)C(C)(C)CCC2(C)C [BEXAROTENE] | – | Non-toxic | Non-toxic
